We go through 13 molecules from paper PMC6424980, “Distinct G protein-coupled receptor phosphorylation motifs modulate arrestin affinity and activation and global conformation” (Nature Communications, 2019).

Assay [1] has as its target T1, arrestin-1 (monomerizing mutant F85A, F197A) (Bos taurus, UniProt P08168, F197A/F85A).
T1 construct: made in house; host or cells: E. coli NiCo (DE3) cells (New England Biolabs), pET-15b vector
The assay is described as follows: Fluorescence anisotropy binding of fluorescein-labelled peptides to arrestin-1. The arrangement: species or system bovine. The text has this: (§1) Synthesized cDNAs of bovine arrestin-1, human arrestin-2 and human arrestin-3 were ordered from Genewiz, amplified by PCR and cloned (Supplementary Information Table 5) into the pET-15b vector (Novagen), using the Gibson Assembly protocol. The constructs contained an N-terminal hexa histidine tag linked by a linker that contained a Tobacco Etch Virus cleavage site (TEV; […]). PCR was used to introduce the monomerizing arrestin-1 mutations (F85A, F197A)[58]. Note that this mutant was employed for fluorescence anisotropy, trypsin digestion, and NMR experiments. Wild-type arrestin-2 and -3 were used for fluorescence anisotropy and trypsin digestion experiments. […] The arrestin-1 in this construct had the wild-type sequence. Note that this construct differs slightly from that previously published[59],[60] and was optimized for purification. We verified the functionality of this fusion construct using the standard centrifugal pull-down assay using phosphorylated rhodopsin in native ROS membranes.
0.1–0.2 mg of lyophilized peptide was dissolved in 50 µl of 50 mM phosphate-buffered saline (PBS) buffer at pH 7.0, and then two molar equivalents of fluorescein-5-maleimide dye stock dissolved in dimethylsulfoxid was added. The reaction was carried out at RT in the dark. After 1 h the reaction was topped up with 1 ml of ice-cold 100% acetone and stored until the next day at −20 °C. The precipitated peptide was centrifuged (13,000 × g) for 10 min. The labeled and precipitated peptide was sedimented, and the supernatant was removed. The peptide was resuspended again in ice-cold acetone, stored for 1 h at −20 °C and centrifuged (13,000 × g) for 10 min. […] The precipitated peptide was dried at RT in the dark. It was dissolved in 50 µl of 20 mM Bis-Tris propane pH 7.0 and 150 mM NaCl and its concentration was determined by absorbance. A molar extinction coefficient of 70,000/M/cm at pH 7.0 was assumed for calculating the concentration of the labeled peptide stock.
An 11-step serial dilution series of arrestin in 20 mM Bis-Tris propane pH 7.0, 150 mM NaCl, 8 mM 2‑mercaptoethanol, 2% (w/w) BSA, 0.02% (v/v) Tween-20 was prepared and transferred to a black high-bottom 384-well plate (Greiner). As control for free peptide, a position with only buffer was included. The peptide was added at a final concentration of 20 nM to each well. The plate was closed by a clear cover and vortexed for 15 s. Afterwards it was centrifuged (800 × g) for 2 min and stored at RT for 20 min. The reading was performed by default settings of PHERAstar plate-reader (BMG Labtech) and excitation‑/emission-wavelengths of 485 nm (12 nm bandpass)/520 nm (30 nm bandpass) were used. The analysis was performed using Origin2016 (Microcal Inc) software by fitting the data to a one-to-one binding model:2 r=R0+△R*P/Kd+P, where r stands for anisotropy, R0 stands for anisotropy of the ligand, ΔR stands for anisotropy of the complex minus anisotropy of the ligand, P stands for the concentration of protein, and Kd stands for the dissociation constant of the ligand.
On the technique in general: In fluorescence polarisation assays a small probe gives low polarisation when free and higher when bound to something large.

In assay [2] the test system is arrestin-1 mutants I72B and F197NBD with nonphosphorylated light-activated rhodopsin in ROS membranes. In words: Ternary complex formation (site-directed fluorescence and centrifugal pull-down). To be noted: 10 µM rhodopsin in ROS, 1 µM arrestin-1 I72B or F197NBD, 100 µM peptide, pH 7. The class given is biochemical, bovine. The source says:
Recombinant bovine arrestin-1 cloned into the pET15b vector was expressed and purified as described. The basic construct was a modified wild-type sequence that contained no native cysteines (C63A, C128S and C143A) nor tryptophans (W194F). Single cysteine residues were introduced by PCR at sites 72 or 197 as previously described. The I72C mutant was labeled with monobromobimane (Thermo Fisher) and is referred to as I72B. The F197C mutant was labeled with N,N′-Dimethyl-N-(Iodoacetyl)-N′-(7-Nitrobenz-2-Oxa-1,3-Diazol-4-yl)Ethylenediamine (IANBD amide, Thermo Fisher) and is referred to as F197NBD. Labeling was carried out as previously described[43],[61]. Both labeled mutants were assessed to be functionally similar to wild-type arrestin-1 using the Extra Meta II assay, which determines the ability of arrestin-1 to bind and stabilize the active Meta II form of rhodopsin[64].
Under dim-red light, samples were prepared that contained nonphosphorylated rhodopsin (10 µM) in ROS membranes, 1 µM arrestin-1 I72B or F197NBD, ±100 µM peptide in 50 mM HEPES, 130 mM NaCl, pH 7 (150 or 200 µl sample volume). One hundred microliters of the sample was used for fluorescence measurements, and the remainder was used for the centrifugal pull-down assay (50 µl per assay). Steady-state fluorescence measurements were performed using a SPEX Fluorolog (1680) instrument in front-face mode. Bimane fluorescence was recorded using an excitation wavelength of 400 nm and emission 424–600 nm, and NBD fluorescence was recorded using an excitation wavelength of 500 nm and emission 524–660 (2 nm step size, 0.5 s integration per point). Excitation slits were narrowed to 0.1−0.2 nm to minimize light-activation of rhodopsin, and emission slits were set at 4 nm. Pull-down analysis was performed by centrifuging samples at 16,000 × g for 10 min at 20 °C. Selected samples were light activated (>495 nm) for 15 s prior to centrifugation (appr. 60 s delay time). Following centrifugation, the supernatants were removed, and the pellets were solubilized in loading buffer containing 2% SDS and subjected to SDS PAGE. Bands were visualized using Coomassie Brilliant Blue.

A further assay deals with arrestin-2. The assay is described as follows: Fluorescence anisotropy binding of fluorescein-labelled peptides to arrestin-2. Also on record: species or system human.
Text: as §1
0.1–0.2 mg of lyophilized peptide was dissolved in 50 µl of 50 mM phosphate-buffered saline (PBS) buffer at pH 7.0, and then two molar equivalents of fluorescein-5-maleimide dye stock dissolved in dimethylsulfoxid was added. The reaction was carried out at RT in the dark. […] It was dissolved in 50 µl of 20 mM Bis-Tris propane pH 7.0 and 150 mM NaCl and its concentration was determined by absorbance. […]

The subject of a further assay is arrestin-1 (F85A, F197A). The assay is described as follows: Limited trypsin digestion of arrestin-1 in presence of peptide. The assay is classed as biochemical, bovine. The following applies: arrestin:peptide 1:1.2, 35 °C, SDS PAGE.
Text: as §1
Arrestin (60 µg) was mixed at a 1 to 1.2 molar ratio with peptide and preincubated at RT for 5 min before 1 μl of 0.15 mg/ml trypsin stock was added. The enzymatic digestion was carried out at 35 °C (20 mM Bis-Tris propane pH 7.0, 150 mM NaCl, 10 mM 2‑Mercaptoethanol and 2 mM EDTA). At certain time points (5, 15, 30, 60, 90 min), 5 μl aliquots were quenched with heat incubation in the presence of 20 μl SDS loading buffer (95 °C, 5 min) and then subjected to SDS PAGE. Bands were visualized with InstantBlue (Expedeon).

The target of assay [3] is T2, bovine arrestin-1 with the monomerizing mutations F85A, F197A (bovine, UniProt P08168 2-404, F85A | F197A).
T2 construct: arrestin-1, bovine, synthesized cDNA in pET-15b; monomerizing mutations F85A, F197A; Used for fluorescence anisotropy, trypsin digestion and NMR (2H,15N,13C-labelled for NMR); residues of the linker may remain after cleavage (surmised); source: E. coli NiCo (DE3), purified (Ni-NTA, TEV, SQ column); not shown: His6, N-terminal, cleaved
T2 sequence (P08168 2-404 F85A/F197A): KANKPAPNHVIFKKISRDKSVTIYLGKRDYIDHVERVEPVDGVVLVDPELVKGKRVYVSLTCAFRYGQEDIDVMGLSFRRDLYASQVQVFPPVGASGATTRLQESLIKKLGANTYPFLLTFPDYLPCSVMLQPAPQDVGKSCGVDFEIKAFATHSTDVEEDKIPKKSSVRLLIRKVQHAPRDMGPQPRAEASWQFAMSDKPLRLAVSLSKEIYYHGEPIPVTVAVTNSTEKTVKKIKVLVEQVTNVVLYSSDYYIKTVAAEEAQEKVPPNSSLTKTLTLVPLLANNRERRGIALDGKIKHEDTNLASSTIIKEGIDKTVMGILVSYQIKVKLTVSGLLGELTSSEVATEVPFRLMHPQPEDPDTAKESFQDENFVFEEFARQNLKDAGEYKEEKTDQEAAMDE
In words: fluorescence polarisation; fluorescence anisotropy; 20 nM fluorescently labelled peptide, 11-step serial dilution of arrestin; 20 mM Bis-Tris propane pH 7.0, 150 mM NaCl, 8 mM 2-mercaptoethanol, 2% BSA, 0.02% Tween-20; RT; one-to-one binding model. The following applies: both partners purified.

Non-standard residues stand in square brackets, D forms with d. No end group written: not given here. pS = N[C@@H](COP(=O)(O)O)C(=O)O

What is called Kd is a measure of binding affinity in units of concentration. A lower Kd goes with tighter binding.

T1 sequence (P08168 whole entry F85A/F197A): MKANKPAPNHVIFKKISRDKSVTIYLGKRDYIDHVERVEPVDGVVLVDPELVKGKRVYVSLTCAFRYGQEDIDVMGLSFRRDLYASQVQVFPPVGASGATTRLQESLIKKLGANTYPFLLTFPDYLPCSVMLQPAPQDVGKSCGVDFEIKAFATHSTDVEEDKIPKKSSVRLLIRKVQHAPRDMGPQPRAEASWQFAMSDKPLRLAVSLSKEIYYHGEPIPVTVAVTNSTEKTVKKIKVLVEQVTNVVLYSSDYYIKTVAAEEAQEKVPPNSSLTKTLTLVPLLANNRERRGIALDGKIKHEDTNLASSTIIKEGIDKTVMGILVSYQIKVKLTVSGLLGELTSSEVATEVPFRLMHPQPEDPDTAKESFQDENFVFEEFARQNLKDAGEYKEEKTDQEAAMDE

Regarding “CDDEASTTVSKTETSQVAPA [3Pe, tri-phosphorylated rhodopsin C-terminus peptide lacking one or both key sites]”, the “binding to arrestin-1 (in words)” value in assay [1] is “significant loss of affinity”. For the same molecule, the “ternary complex formation (arrestin-1, nonphosphorylated rhodopsin, peptide)” value (“ternary complex formation” for short) in assay [2] is recorded as “very little arrestin binding”. Consider CDDEASTTVSKTETSQVAPA [3Pf], for which, in assay [1], the “binding to arrestin-1 (in words)” value was “significant loss of arrestin-1 affinity”. Moreover, the “binding to arrestin-2 (in words)” value in the assay on arrestin-2 was “bound well”. Further, the “limited trypsin digest pattern of arrestin-1 (conformational change, C-tail displacement)” value in the assay on arrestin-1 (F85A, F197A) was “notable exception”. Further, the “ternary complex formation” value in assay [2] is “less ternary complex formation”. On to “CDDEASTTVSKTETSQVAPA [3Pg, tri-phosphorylated rhodopsin C-terminus peptide lacking one key site, containing pT335 and pS338]”, for which the “binding to arrestin-1 (in words)” value in assay [1] is “significant loss of affinity”. Further, the “ternary complex formation” value in assay [2] was “moderate ternary complex formation”.

As to “CDDEASTTVSKTETSQVAPA [3Ph, tri-phosphorylated rhodopsin C-terminus peptide lacking one or both key sites]”, the “binding to arrestin-1 (in words)” value in assay [1] is recorded as “significant loss of affinity”. In addition, the “ternary complex formation” value in assay [2] is “very little arrestin binding”. Consider “CDDEASTTVSKTETSQVAPA [3Pi, tri-phosphorylated rhodopsin C-terminus peptide lacking one key site, containing pT335 and pS338]”, for which the “binding to arrestin-1 (in words)” value in assay [1] is “significant loss of affinity”. Moreover, the “ternary complex formation” value in assay [2] is given as “moderate ternary complex formation”. Regarding “CDDEASTTVSKTETSQVAPA [3Pj, tri-phosphorylated rhodopsin C-terminus peptide lacking one or both key sites]”, in assay [1], the “binding to arrestin-1 (in words)” value is given as “significant loss of affinity”. For the same molecule, in assay [2], the “ternary complex formation” value is on record as “very little arrestin binding”. The like results for “CDDEASTTVSKTETSQVAPA [3Pk, tri-phosphorylated rhodopsin C-terminus peptide lacking one or both key sites]” were, in that order, “significant loss of affinity” and “very little arrestin binding”. As for C(fluorescein‑5‑maleimide)DDEASTTVSKTET[pS]QVAPA (not fully specified (residue 12); also: third phospho-Ser/Thr site not placed) [tri-phosphorylated peptide 3Pb of the bovine rhodopsin C-terminus], the Kd in assay [3] was under 250 µM.

B1: phosphopeptide 4P of the bovine rhodopsin C-terminus (peptide)
chain: C(fluorescein‑5‑maleimide)DDEASTTVSKTET[pS]QVAPA
modifications: not fully specified (residue 12); also: two further phospho-Ser/Thr sites not placed
In assay [3], B1 had a Kd of under 250 µM.

Regarding C(fluorescein‑5‑maleimide)DDEASTTVSKTET[pS]QVAPA (not fully specified (residue 12); also: third phospho-Ser/Thr site not placed) [tri-phosphorylated peptide 3Pa of the bovine rhodopsin C-terminus], the Kd in assay [3] is under 250 µM.

In assay [3], C(fluorescein‑5‑maleimide)DDEASTTVSKTET[pS]QVAPA (not fully specified (residue 12); also: third phospho-Ser/Thr site not placed) [tri-phosphorylated peptide 3Pc of the bovine rhodopsin C-terminus] displayed a Kd of under 250 µM. Still for that read-out and setting: as for C(fluorescein‑5‑maleimide)DDEASTTVSKTET[pS]QVAPA (not fully specified (residue 12); also: third phospho-Ser/Thr site not placed) [tri-phosphorylated peptide 3Pd of the bovine rhodopsin C-terminus], the figure is under 250 µM.

B2: phosphopeptide 6P of the bovine rhodopsin C-terminus (peptide)
chain: C(fluorescein‑5‑maleimide)DDEASTTVSKTET[pS]QVAPA
modifications: not fully specified (residue 12); also: four further phospho-Ser/Thr sites not placed
In the case of B2, the Kd in assay [3] is under 250 µM.
